{"source": "patent US20090074815A1", "about": "“Immunomodulator Compounds as Vaccine Enhancers” (SCICLONE PHARMACEUTICALS, INC., priority 2005, published 2009)", "test_system": "splenocytes", "assay": "OvA-induced proliferation of splenocytes of OvA-immunized mice", "type": "in vivo", "settings": "for Proliferation of splenocytes, Spontaneous, cpm, M ± SD / Proliferation of splenocytes, SI / Proliferation of splenocytes, cpm, M ± SD: OvA/FA", "method": "Assessment of Mitogen- and Antigen-Induced Proliferation: […] Antigen-specific proliferation was studied by stimulating thymocytes and splenoctyes in vitro with different concentrations of OvA for 96 h. Twenty (20) to twenty-four (24) hours prior to completion of incubation, 3H-labeled thymidine (5 μCi/ml) was added to the cells. The cells were then transferred to fiberglass filters with a Titertek® semi-automatic cell harvester. Thymidine uptake was measured using a RackBeta 1217 (Wallac) liquid scintillation β-counter. For quantitative analysis of proliferation, the stimulation index (SI) was calculated as a ratio of the intensity of label inclusion in the stimulated cells to that in non-stimulated cells.", "key": {"[1]": {"settings": "10.0 μg/kg per os, OvA 10 μg/ml"}, "[2]": {"settings": "10.0 μg/kg per os, OvA 50 μg/ml"}}}
{"smiles": "N[C@H](CCC(=O)N[C@@H](Cc1c[nH]c2ccccc12)C(=O)O)C(=O)O", "note": "[SCV-07, γ-D-glutamyl-L-tryptophan]", "values": [{"measurement": "proliferation of splenocytes versus control group", "setting": "OvA/Alum, data not shown", "value": "No significant differences"}, {"measurement": "Proliferation of splenocytes, Spontaneous, cpm, M ± SD", "setting": "0.1 μg/kg i/p", "value": "10726 ± 1947", "unit": "cpm"}, {"measurement": "Proliferation of splenocytes, SI", "setting": "0.1 μg/kg i/p, OvA 10 μg/ml", "value": 1.09}, {"measurement": "Proliferation of splenocytes, cpm, M ± SD", "setting": "0.1 μg/kg i/p, OvA 10 μg/ml", "value": "11683 ± 2285", "unit": "cpm"}, {"measurement": "Proliferation of splenocytes, SI", "setting": "0.1 μg/kg i/p, OvA 50 μg/ml", "value": 1.32}, {"measurement": "Proliferation of splenocytes, cpm, M ± SD", "setting": "0.1 μg/kg i/p, OvA 50 μg/ml", "value": "14195 ± 3304", "unit": "cpm"}, {"measurement": "Proliferation of splenocytes, Spontaneous, cpm, M ± SD", "setting": "0.1 μg/kg per os", "value": "8786 ± 1259", "unit": "cpm"}, {"measurement": "Proliferation of splenocytes, SI", "setting": "0.1 μg/kg per os, OvA 10 μg/ml", "value": 1.29}, {"measurement": "Proliferation of splenocytes, cpm, M ± SD", "setting": "0.1 μg/kg per os, OvA 10 μg/ml", "value": "11304 ± 1317", "unit": "cpm"}, {"measurement": "Proliferation of splenocytes, SI", "setting": "0.1 μg/kg per os, OvA 50 μg/ml", "value": 1.36}, {"measurement": "Proliferation of splenocytes, cpm, M ± SD", "setting": "0.1 μg/kg per os, OvA 50 μg/ml", "value": "11923 ± 1623", "unit": "cpm"}, {"measurement": "Proliferation of splenocytes, Spontaneous, cpm, M ± SD", "setting": "1.0 μg/kg i/p", "value": "9760 ± 1650", "unit": "cpm"}, {"measurement": "Proliferation of splenocytes, SI", "setting": "1.0 μg/kg i/p, OvA 10 μg/ml", "value": 1.05}, {"measurement": "Proliferation of splenocytes, cpm, M ± SD", "setting": "1.0 μg/kg i/p, OvA 10 μg/ml", "value": "10260 ± 2808", "unit": "cpm"}, {"measurement": "Proliferation of splenocytes, SI", "setting": "1.0 μg/kg i/p, OvA 50 μg/ml", "value": 1.67}, {"measurement": "Proliferation of splenocytes, cpm, M ± SD", "setting": "1.0 μg/kg i/p, OvA 50 μg/ml", "value": "16313 ± 1057", "unit": "cpm"}, {"measurement": "Proliferation of splenocytes, Spontaneous, cpm, M ± SD", "setting": "1.0 μg/kg per os", "value": "7013 ± 1698", "unit": "cpm"}, {"measurement": "Proliferation of splenocytes, SI", "setting": "1.0 μg/kg per os, OvA 10 μg/ml", "value": 1.26}, {"measurement": "Proliferation of splenocytes, cpm, M ± SD", "setting": "1.0 μg/kg per os, OvA 10 μg/ml", "value": "8864 ± 2675", "unit": "cpm"}, {"measurement": "Proliferation of splenocytes, SI", "setting": "1.0 μg/kg per os, OvA 50 μg/ml", "value": 1.49}, {"measurement": "Proliferation of splenocytes, cpm, M ± SD", "setting": "1.0 μg/kg per os, OvA 50 μg/ml", "value": "10457 ± 1740", "unit": "cpm"}, {"measurement": "Proliferation of splenocytes, Spontaneous, cpm, M ± SD", "setting": "10.0 μg/kg per os", "value": "10665 ± 887", "unit": "cpm"}, {"measurement": "Proliferation of splenocytes, SI", "setting": "[1]", "value": 1.27}, {"measurement": "Proliferation of splenocytes, cpm, M ± SD", "setting": "[1]", "value": "13585 ± 1102", "unit": "cpm"}, {"measurement": "Proliferation of splenocytes, SI", "setting": "[2]", "value": 1.21}, {"measurement": "Proliferation of splenocytes, cpm, M ± SD", "setting": "[2]", "value": "12903 ± 881", "unit": "cpm"}]}
